Data as given in ChEMBL document CHEMBL1955812, “New chemotypes acting as isozyme-selective carbonic anhydrase inhibitors with low affinity for the offtarget cytosolic isoform II” (Bioorg Med Chem Lett, 2012).

Assays:
Carbonic anhydrase 14 [1] = target: T1, Carbonic anhydrase 14 (Homo sapiens, UniProt Q9ULX7); assay: Inhibition of human recombinant carbonic anhydrase 14 preincubated for 15 mins to 72 hrs measured after 15 mins by stopped flow CO2 hydration method
Carbonic anhydrase 12 [2] = target: T2, Carbonic anhydrase 12 (Homo sapiens, UniProt O43570); assay: Inhibition of human recombinant carbonic anhydrase 12 preincubated for 15 mins to 72 hrs measured after 6 hrs by stopped flow CO2 hydration method
[3] = target: T3, Carbonic anhydrase 5B, mitochondrial (Homo sapiens, UniProt Q9Y2D0); assay: Inhibition of human recombinant carbonic anhydrase 5B preincubated for 15 mins to 72 hrs measured after 6 hrs by stopped flow CO2 hydration method
Carbonic anhydrase 6 [4] = target: T4, Carbonic anhydrase 6 (Homo sapiens, UniProt P23280); assay: Inhibition of human recombinant carbonic anhydrase 6 preincubated for 15 mins to 72 hrs measured after 6 hrs by stopped flow CO2 hydration method
Carbonic anhydrase 13 [5] = target: T5, Carbonic anhydrase 13 (Homo sapiens, UniProt Q8N1Q1); assay: Inhibition of human recombinant carbonic anhydrase 13 preincubated for 15 mins to 72 hrs measured after 15 mins by stopped flow CO2 hydration method
Carbonic anhydrase 4 [6] = target: T6, Carbonic anhydrase 4 (Homo sapiens, UniProt P22748); assay: Inhibition of human recombinant carbonic anhydrase 4 preincubated for 15 mins to 72 hrs measured after 6 hrs by stopped flow CO2 hydration method
Carbonic anhydrase 9 [7] = target: T7, Carbonic anhydrase 9 (Homo sapiens, UniProt Q16790); assay: Inhibition of human recombinant carbonic anhydrase 9 preincubated for 15 mins to 72 hrs measured after 15 mins by stopped flow CO2 hydration method
Carbonic anhydrase 7 [8] = target: T8, Carbonic anhydrase 7 (Homo sapiens, UniProt P43166); assay: Inhibition of human recombinant carbonic anhydrase 7 preincubated for 15 mins to 72 hrs measured after 15 mins by stopped flow CO2 hydration method
Carbonic anhydrase 2 [9] = target: T9, Carbonic anhydrase 2 (Homo sapiens, UniProt P00918); assay: Inhibition of human recombinant carbonic anhydrase 2 preincubated for 15 mins to 72 hrs measured after 6 hrs by stopped flow CO2 hydration method
Carbonic anhydrase 1 [10] = target: T10, Carbonic anhydrase 1 (Homo sapiens, UniProt P00915); assay: Inhibition of human recombinant carbonic anhydrase 1 preincubated for 15 mins to 72 hrs measured after 6 hrs by stopped flow CO2 hydration method
Carbonic anhydrase 2 [11] = target: T9, Carbonic anhydrase 2; assay: Inhibition of human recombinant carbonic anhydrase 2 preincubated for 15 mins to 72 hrs measured after 15 mins by stopped flow CO2 hydration method
Carbonic anhydrase 9 [12] = target: T7, Carbonic anhydrase 9; assay: Inhibition of human recombinant carbonic anhydrase 9 preincubated for 15 mins to 72 hrs measured after 6 hrs by stopped flow CO2 hydration method
Carbonic anhydrase 4 [13] = target: T6, Carbonic anhydrase 4; assay: Inhibition of human recombinant carbonic anhydrase 4 preincubated for 15 mins to 72 hrs measured after 15 mins by stopped flow CO2 hydration method
[14] = target: T11, Carbonic anhydrase 5A, mitochondrial (Homo sapiens, UniProt P35218); assay: Inhibition of human recombinant carbonic anhydrase 5A preincubated for 15 mins to 72 hrs measured after 15 mins by stopped flow CO2 hydration method
Carbonic anhydrase 1 [15] = target: T10, Carbonic anhydrase 1; assay: Inhibition of human recombinant carbonic anhydrase 1 preincubated for 15 mins to 72 hrs measured after 15 mins by stopped flow CO2 hydration method
Carbonic anhydrase 3 [16] = target: T12, Carbonic anhydrase 3 (Homo sapiens, UniProt P07451); assay: Inhibition of human recombinant carbonic anhydrase 3 preincubated for 15 mins to 72 hrs measured after 6 hrs by stopped flow CO2 hydration method
Carbonic anhydrase 13 [17] = target: T5, Carbonic anhydrase 13; assay: Inhibition of human recombinant carbonic anhydrase 13 preincubated for 15 mins to 72 hrs measured after 6 hrs by stopped flow CO2 hydration method
Carbonic anhydrase 12 [18] = target: T2, Carbonic anhydrase 12; assay: Inhibition of human recombinant carbonic anhydrase 12 preincubated for 15 mins to 72 hrs measured after 15 mins by stopped flow CO2 hydration method
Carbonic anhydrase 7 [19] = target: T8, Carbonic anhydrase 7; assay: Inhibition of human recombinant carbonic anhydrase 7 preincubated for 15 mins to 72 hrs measured after 6 hrs by stopped flow CO2 hydration method
Carbonic anhydrase 14 [20] = target: T1, Carbonic anhydrase 14; assay: Inhibition of human recombinant carbonic anhydrase 14 preincubated for 15 mins to 72 hrs measured after 6 hrs by stopped flow CO2 hydration method
[21] = target: T11, Carbonic anhydrase 5A, mitochondrial; assay: Inhibition of human recombinant carbonic anhydrase 5A preincubated for 15 mins to 72 hrs measured after 6 hrs by stopped flow CO2 hydration method
Carbonic anhydrase 3 [22] = target: T12, Carbonic anhydrase 3; assay: Inhibition of human recombinant carbonic anhydrase 3 preincubated for 15 mins to 72 hrs measured after 15 mins by stopped flow CO2 hydration method
Carbonic anhydrase 6 [23] = target: T4, Carbonic anhydrase 6; assay: Inhibition of human recombinant carbonic anhydrase 6 preincubated for 15 mins to 72 hrs measured after 15 mins by stopped flow CO2 hydration method
[24] = target: T3, Carbonic anhydrase 5B, mitochondrial; assay: Inhibition of human recombinant carbonic anhydrase 5B preincubated for 15 mins to 72 hrs measured after 15 mins by stopped flow CO2 hydration method
[25] = tested as the Zn salt or complex

T12 sequence (P07451 whole entry): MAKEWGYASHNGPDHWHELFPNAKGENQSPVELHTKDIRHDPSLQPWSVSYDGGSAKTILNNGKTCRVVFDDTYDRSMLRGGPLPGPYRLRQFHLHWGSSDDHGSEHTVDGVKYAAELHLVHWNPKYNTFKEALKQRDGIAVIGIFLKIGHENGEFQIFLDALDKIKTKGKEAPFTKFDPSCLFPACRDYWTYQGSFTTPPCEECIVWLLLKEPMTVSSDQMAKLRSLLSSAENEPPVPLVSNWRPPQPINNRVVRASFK
T8 sequence (P43166 whole entry): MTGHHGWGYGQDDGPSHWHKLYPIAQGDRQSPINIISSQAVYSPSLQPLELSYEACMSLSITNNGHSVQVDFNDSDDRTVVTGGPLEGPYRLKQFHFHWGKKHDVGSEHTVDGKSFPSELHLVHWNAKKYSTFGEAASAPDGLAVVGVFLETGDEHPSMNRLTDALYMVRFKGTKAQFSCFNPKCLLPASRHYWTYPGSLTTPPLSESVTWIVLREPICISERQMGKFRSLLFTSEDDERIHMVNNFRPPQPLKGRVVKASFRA
T1 sequence (Q9ULX7 whole entry): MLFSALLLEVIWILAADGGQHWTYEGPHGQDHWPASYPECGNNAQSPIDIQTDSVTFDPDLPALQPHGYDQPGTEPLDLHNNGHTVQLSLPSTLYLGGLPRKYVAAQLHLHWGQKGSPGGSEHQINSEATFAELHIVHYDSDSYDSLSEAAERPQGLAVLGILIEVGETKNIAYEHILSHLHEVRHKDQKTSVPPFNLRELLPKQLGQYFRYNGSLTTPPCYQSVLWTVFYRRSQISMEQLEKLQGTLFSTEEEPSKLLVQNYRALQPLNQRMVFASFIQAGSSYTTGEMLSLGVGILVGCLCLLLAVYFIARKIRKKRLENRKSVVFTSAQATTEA
T11 sequence (P35218 whole entry): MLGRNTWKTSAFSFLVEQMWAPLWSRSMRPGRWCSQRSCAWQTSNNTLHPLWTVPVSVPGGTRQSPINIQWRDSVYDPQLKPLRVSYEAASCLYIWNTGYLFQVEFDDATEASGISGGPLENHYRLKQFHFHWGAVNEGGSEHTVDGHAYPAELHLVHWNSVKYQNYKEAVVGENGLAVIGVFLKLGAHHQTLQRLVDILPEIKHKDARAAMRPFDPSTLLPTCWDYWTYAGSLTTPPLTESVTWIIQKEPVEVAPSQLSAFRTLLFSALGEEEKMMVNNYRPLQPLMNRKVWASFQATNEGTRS
T5 sequence (Q8N1Q1 whole entry): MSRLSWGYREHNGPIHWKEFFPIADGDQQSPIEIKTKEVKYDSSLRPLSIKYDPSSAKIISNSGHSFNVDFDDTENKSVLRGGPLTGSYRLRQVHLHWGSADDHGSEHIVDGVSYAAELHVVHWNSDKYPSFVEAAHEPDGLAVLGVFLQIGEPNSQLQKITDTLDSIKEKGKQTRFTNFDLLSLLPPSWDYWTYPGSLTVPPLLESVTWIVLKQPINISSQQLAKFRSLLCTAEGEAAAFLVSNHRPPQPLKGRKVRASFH
T2 sequence (O43570 whole entry): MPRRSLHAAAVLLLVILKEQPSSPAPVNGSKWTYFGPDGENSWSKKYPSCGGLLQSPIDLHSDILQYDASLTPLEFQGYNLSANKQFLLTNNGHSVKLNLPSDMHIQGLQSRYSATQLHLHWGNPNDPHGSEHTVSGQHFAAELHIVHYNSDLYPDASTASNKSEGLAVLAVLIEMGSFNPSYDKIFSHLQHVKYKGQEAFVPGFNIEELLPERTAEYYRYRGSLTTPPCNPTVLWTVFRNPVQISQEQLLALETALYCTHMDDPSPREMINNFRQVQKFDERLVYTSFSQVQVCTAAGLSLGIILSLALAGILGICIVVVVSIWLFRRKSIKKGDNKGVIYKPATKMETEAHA
T3 sequence (Q9Y2D0 whole entry): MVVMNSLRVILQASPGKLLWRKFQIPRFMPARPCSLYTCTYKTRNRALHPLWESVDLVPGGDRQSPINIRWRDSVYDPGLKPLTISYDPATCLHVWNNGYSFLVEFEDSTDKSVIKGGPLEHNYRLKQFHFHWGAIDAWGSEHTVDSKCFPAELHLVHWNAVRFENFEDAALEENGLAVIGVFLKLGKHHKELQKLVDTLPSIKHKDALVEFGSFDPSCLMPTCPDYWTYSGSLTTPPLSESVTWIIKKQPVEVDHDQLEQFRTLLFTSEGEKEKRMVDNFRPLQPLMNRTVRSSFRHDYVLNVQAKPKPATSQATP
T10 sequence (P00915 whole entry): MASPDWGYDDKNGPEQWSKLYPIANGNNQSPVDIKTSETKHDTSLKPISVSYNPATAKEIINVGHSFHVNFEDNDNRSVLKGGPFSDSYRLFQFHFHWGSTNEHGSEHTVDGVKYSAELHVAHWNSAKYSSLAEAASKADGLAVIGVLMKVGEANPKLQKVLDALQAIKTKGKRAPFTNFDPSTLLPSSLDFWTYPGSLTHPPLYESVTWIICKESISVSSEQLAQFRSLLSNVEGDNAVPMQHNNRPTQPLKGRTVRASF
T4 sequence (P23280 whole entry): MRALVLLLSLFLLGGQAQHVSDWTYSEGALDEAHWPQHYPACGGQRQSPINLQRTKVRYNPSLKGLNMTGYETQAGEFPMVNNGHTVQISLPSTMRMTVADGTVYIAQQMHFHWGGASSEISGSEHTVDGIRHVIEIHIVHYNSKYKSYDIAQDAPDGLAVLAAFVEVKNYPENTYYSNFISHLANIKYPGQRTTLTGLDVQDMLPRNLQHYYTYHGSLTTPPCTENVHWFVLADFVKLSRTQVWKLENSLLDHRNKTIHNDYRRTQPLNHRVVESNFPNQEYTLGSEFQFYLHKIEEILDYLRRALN
T6 sequence (P22748 whole entry): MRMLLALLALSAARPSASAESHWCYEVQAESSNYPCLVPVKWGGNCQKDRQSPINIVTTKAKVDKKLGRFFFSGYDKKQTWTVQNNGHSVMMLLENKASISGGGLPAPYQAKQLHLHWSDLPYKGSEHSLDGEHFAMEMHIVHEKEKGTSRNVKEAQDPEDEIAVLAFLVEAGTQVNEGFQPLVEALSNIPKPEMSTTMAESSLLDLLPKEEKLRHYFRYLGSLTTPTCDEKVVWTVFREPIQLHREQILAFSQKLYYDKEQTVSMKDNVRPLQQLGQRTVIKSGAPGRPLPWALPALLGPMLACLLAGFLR

Q: With [O-][n+]1ccccc1S [PYRITHIONE ZINC] as the molecule, how does the Ki (Carbonic anhydrase 14 [1]; [25]) read?
A: 2.91 µM

Q: And the Ki (Carbonic anhydrase 12 [2]; [25])?
A: 5.4 µM

Q: What about the Ki [3, 25] of the same molecule?
A: 3.55 µM

Q: And the Ki (Carbonic anhydrase 6 [4]; [25])?
A: 2.41 µM

Q: And the Ki (Carbonic anhydrase 13 [5]; [25])?
A: 4.15 µM

Q: And the Ki (Carbonic anhydrase 4 [6]; [25])?
A: 6.13 µM

Q: And the Ki (Carbonic anhydrase 9 [7]; [25])?
A: 1.72 µM

Q: What about the Ki (Carbonic anhydrase 7 [8]; [25]) of the same molecule?
A: 7.76 µM

Q: What about the Ki (Carbonic anhydrase 2 [9]; [25]) of the same molecule?
A: > 200 µM

Q: What about the Ki (Carbonic anhydrase 1 [10]; [25]) of the same molecule?
A: > 200 µM

Q: What about the Ki (Carbonic anhydrase 2 [11]; [25]) of the same molecule?
A: > 200 µM

Q: What about the Ki (Carbonic anhydrase 9 [12]; [25]) of the same molecule?
A: 1.72 µM

Q: And the Ki (Carbonic anhydrase 4 [13]; [25])?
A: 6.13 µM

Q: What about the Ki [14, 25] of the same molecule?
A: 5.12 µM

Q: And the Ki (Carbonic anhydrase 1 [15]; [25])?
A: > 200 µM

Q: What about the Ki (Carbonic anhydrase 3 [16]; [25]) of the same molecule?
A: 1.62 µM

Q: And the Ki (Carbonic anhydrase 13 [17]; [25])?
A: 4.15 µM

Q: What about the Ki (Carbonic anhydrase 12 [18]; [25]) of the same molecule?
A: 5.4 µM

Q: What about the Ki (Carbonic anhydrase 7 [19]; [25]) of the same molecule?
A: 7.76 µM

Q: What about the Ki (Carbonic anhydrase 14 [20]; [25]) of the same molecule?
A: 2.91 µM

Q: What about the Ki [21, 25] of the same molecule?
A: 5.12 µM

Q: What about the Ki (Carbonic anhydrase 3 [22]; [25]) of the same molecule?
A: 1.62 µM

Q: What about the Ki (Carbonic anhydrase 6 [23]; [25]) of the same molecule?
A: 2.41 µM

Q: And the Ki [24, 25]?
A: 3.55 µM

Q: What does the source list for O=C(S)c1ccccc1 [THIOBENZOIC ACID]?
A: Ki (Carbonic anhydrase 12 [2]): 2.77 µM; Ki (Carbonic anhydrase 9 [7]): 5.64 µM; Ki (Carbonic anhydrase 7 [8]): 5.74 µM; Ki (Carbonic anhydrase 2 [9]): 51 µM; Ki (Carbonic anhydrase 1 [10]): 10.8 µM; Ki (Carbonic anhydrase 2 [11]): 51 µM; Ki (Carbonic anhydrase 9 [12]): 5.64 µM; Ki (Carbonic anhydrase 1 [15]): 10.8 µM; Ki (Carbonic anhydrase 12 [18]): 2.77 µM; Ki (Carbonic anhydrase 7 [19]): 5.74 µM

Q: For Cc1cc(C)o/c(=N/O)c1, which Ki (Carbonic anhydrase 12 [2]) is on record?
A: 0.064 µM

Q: And the Ki (Carbonic anhydrase 2 [9])?
A: > 200 µM

Q: And the Ki (Carbonic anhydrase 1 [10])?
A: 0.009 µM

Q: And the Ki (Carbonic anhydrase 9 [12])?
A: 0.016 µM

Q: What about the Ki (Carbonic anhydrase 7 [19]) of the same molecule?
A: 0.27 µM

Q: Which results are given for O/N=c1/ccc2ccccc2o1?
A: Ki (Carbonic anhydrase 12 [2]): 0.054 µM; Ki (Carbonic anhydrase 2 [9]): > 200 µM; Ki (Carbonic anhydrase 1 [10]): 0.009 µM; Ki (Carbonic anhydrase 9 [12]): 0.058 µM; Ki (Carbonic anhydrase 7 [19]): 0.84 µM

Q: With CCOP(=S)(OCC)Oc1ccc2c(C)c(Cl)c(=O)oc2c1 [COUMAPHOS] as the molecule, how does the Ki (Carbonic anhydrase 12 [2]) read?
A: 9.52 µM

Q: What about the Ki [3] of the same molecule?
A: 3.41 µM

Q: And the Ki (Carbonic anhydrase 6 [4])?
A: 2.23 µM

Q: And the Ki (Carbonic anhydrase 4 [6])?
A: 5.48 µM

Q: What about the Ki (Carbonic anhydrase 2 [9]) of the same molecule?
A: > 200 µM

Q: What about the Ki (Carbonic anhydrase 1 [10]) of the same molecule?
A: 61.7 µM

Q: What about the Ki (Carbonic anhydrase 9 [12]) of the same molecule?
A: 6.41 µM

Q: What about the Ki (Carbonic anhydrase 3 [16]) of the same molecule?
A: 4.62 µM

Q: And the Ki (Carbonic anhydrase 13 [17])?
A: 4.23 µM

Q: And the Ki (Carbonic anhydrase 7 [19])?
A: 4.68 µM

Q: And the Ki (Carbonic anhydrase 14 [20])?
A: 4.14 µM

Q: And the Ki [21]?
A: 5.09 µM

Q: O=c1ccc2ccccc2o1 [COUMARIN] was tested. Which Ki (Carbonic anhydrase 4 [6]) did it give?
A: 62.3 µM

Q: And the Ki (Carbonic anhydrase 3 [16])?
A: > 200 µM

Q: What about the Ki (Carbonic anhydrase 13 [17]) of the same molecule?
A: > 200 µM

Q: What about the Ki (Carbonic anhydrase 7 [19]) of the same molecule?
A: > 200 µM

Q: With Oc1ccc2ccccc2n1 as the molecule, how does the Ki (Carbonic anhydrase 14 [1]) read?
A: 0.036 µM

Q: And the Ki (Carbonic anhydrase 12 [2])?
A: 0.093 µM

Q: And the Ki [3]?
A: 0.75 µM

Q: And the Ki (Carbonic anhydrase 6 [4])?
A: 0.033 µM

Q: What about the Ki (Carbonic anhydrase 13 [5]) of the same molecule?
A: 0.065 µM

Q: And the Ki (Carbonic anhydrase 4 [6])?
A: 0.36 µM

Q: And the Ki (Carbonic anhydrase 9 [7])?
A: 0.082 µM

Q: And the Ki (Carbonic anhydrase 7 [8])?
A: 0.42 µM

Q: What about the Ki (Carbonic anhydrase 2 [9]) of the same molecule?
A: > 200 µM

Q: What about the Ki (Carbonic anhydrase 1 [10]) of the same molecule?
A: 6.23 µM

Q: And the Ki (Carbonic anhydrase 2 [11])?
A: > 200 µM

Q: And the Ki (Carbonic anhydrase 9 [12])?
A: 0.082 µM

Q: What about the Ki (Carbonic anhydrase 4 [13]) of the same molecule?
A: 0.36 µM

Q: And the Ki [14]?
A: 0.41 µM

Q: What about the Ki (Carbonic anhydrase 1 [15]) of the same molecule?
A: 6.23 µM

Q: What about the Ki (Carbonic anhydrase 3 [16]) of the same molecule?
A: 0.57 µM

Q: What about the Ki (Carbonic anhydrase 13 [17]) of the same molecule?
A: 0.065 µM

Q: What about the Ki (Carbonic anhydrase 12 [18]) of the same molecule?
A: 0.093 µM

Q: What about the Ki (Carbonic anhydrase 7 [19]) of the same molecule?
A: 0.42 µM

Q: And the Ki (Carbonic anhydrase 14 [20])?
A: 0.036 µM

Q: What about the Ki [21] of the same molecule?
A: 0.41 µM

Q: What about the Ki (Carbonic anhydrase 3 [22]) of the same molecule?
A: 0.57 µM

Q: What about the Ki (Carbonic anhydrase 6 [23]) of the same molecule?
A: 0.033 µM

Q: And the Ki [24]?
A: 0.75 µM
